Read-outs that look alike come from different tables or passages of the source.
Key:
[1] = target: T1, topoisomerase I (Topo I) (Homo sapiens, UniProt P11387); experiment: Topo I enzyme-inhibitory activity by agarose-gel electrophoresis (plasmid relaxation); assay type: biochemical
T1 sequence (P11387 1-765): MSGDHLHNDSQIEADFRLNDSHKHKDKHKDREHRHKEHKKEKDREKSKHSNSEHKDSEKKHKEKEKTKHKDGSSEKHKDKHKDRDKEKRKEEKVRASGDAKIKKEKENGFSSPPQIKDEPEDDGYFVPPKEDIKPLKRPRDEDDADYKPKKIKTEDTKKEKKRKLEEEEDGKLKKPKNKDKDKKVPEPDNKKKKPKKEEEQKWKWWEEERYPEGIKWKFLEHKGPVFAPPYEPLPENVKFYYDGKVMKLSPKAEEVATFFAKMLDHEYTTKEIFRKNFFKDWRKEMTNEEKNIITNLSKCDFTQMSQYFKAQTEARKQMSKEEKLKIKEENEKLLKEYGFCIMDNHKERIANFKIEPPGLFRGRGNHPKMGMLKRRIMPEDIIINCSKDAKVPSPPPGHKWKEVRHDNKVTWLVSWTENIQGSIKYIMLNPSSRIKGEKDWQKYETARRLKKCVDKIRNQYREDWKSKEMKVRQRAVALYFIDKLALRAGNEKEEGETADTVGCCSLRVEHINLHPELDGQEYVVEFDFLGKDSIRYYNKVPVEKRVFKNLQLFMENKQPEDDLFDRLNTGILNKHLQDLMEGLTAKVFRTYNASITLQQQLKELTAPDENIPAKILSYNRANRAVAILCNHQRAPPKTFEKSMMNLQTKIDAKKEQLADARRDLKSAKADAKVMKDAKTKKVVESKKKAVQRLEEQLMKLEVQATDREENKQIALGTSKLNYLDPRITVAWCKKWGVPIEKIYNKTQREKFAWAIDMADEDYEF
Excerpt: Test Example 1. Determination of Topo I Enzyme-Inhibitory Activity by Agarose-Gel Electrophoresis
Principle: Type-I topoisomerase (Topo I) relaxes positive and negative supercoils by introducing transient single-strand breaks and forming reversible cleavage complexes (Topo I-DNA covalent complexes). Gel electrophoresis can resolve DNA species of identical molecular weight but different topology: supercoiled plasmid migrates fastest, whereas the nicked, relaxed form moves more slowly. Quantifying the decrease in supercoiled DNA therefore provides a direct measure of Topo I activity.
Experimental Procedure: A 1× reaction buffer was prepared (20 mM Tris-HCl pH 7.5, 200 mM NaCl, 0.25 mM EDTA, 5 % (v/v) glycerol, 0.5 µg pNO1 plasmid substrate). Test compounds (5 % DMSO final) were added to the buffer, followed by Topo I enzyme (0.75 U per reaction). After gentle mixing, reactions were incubated at 37 °C for 30 min. Positive (enzyme + vehicle) and negative (no enzyme) controls were included in parallel. Reactions were terminated by adding STEB buffer and chloroform/iso-amyl alcohol (24:1, v/v), vortexed and centrifuged for 2 min. The aqueous (upper) phase was loaded onto a 1 % (w/v) agarose gel, electrophoresed for 1-2 h, stained with GelRed, and imaged under UV trans-illumination.
Data Analysis: Band intensities of supercoiled DNA were quantified with image-analysis software. Relaxation activity (%) was calculated as (Max-Sample)/ (Max-Min)*100%, where Max = intensity of the no-enzyme negative control, Min = intensity of the vehicle-only positive control, and Sample = intensity of the compound-treated lane. Dose-response data (compound concentration, X; relaxation activity %, Y) were fitted in Excel or GraphPad Prism 5.0 using the four-parameter logistic equation: Y=Bottom + (Top-Bottom)/(1+(IC50/X)[…]) to derive the IC50 value for each compound.
Table 1. Compound-mediated inhibition of topoisomerase I (Topo I) enzymatic activity

[2] = in vivo
Protocol: Test Example 3. Pharmacokinetic Study for Determining Compound Concentrations in Mice by LC-MS/MS
Principle: LC-MS/MS is used to quantify the plasma concentrations of the test article at successive time points, generating an in-vivo pharmacokinetic profile.
Procedure: The test compound was dissolved in DMSO to prepare a 10 mg/mL stock solution. This stock was further diluted to 1 mg/mL with a vehicle consisting of 10 % DMSO + 10 % Solutol HS-15 + 80 % saline. Male CD-1 mice (JH Laboratory Animal Co., LTD) were employed; six animals were assigned per compound group. […] Serial blood samples (~50 µL whole blood, K2EDTA anticoagulant) were collected at 0.083, 0.25, 0.5, 1, 2, 4, 8 and 24 h (three mice per time point in a crossover design). Blood was centrifuged at 6 000 g for 5 min at 4 °C; plasma was harvested and stored at -70 °C until analysis. Plasma drug concentrations were determined by LC-MS/MS.
Calibration Curve and QC Preparation: Working solutions were prepared by dilution with MeOH:H2O (1:1). For each calibration or QC level, 3 µL of working solution was spiked into 57 µL of blank mouse plasma.
Sample Processing: To 30 µL of plasma was added 200 µL of methanol containing the internal standard (propranolol, 40 ng mL^-1). After vortex-mixing for 1 min, the mixture was centrifuged at 12 000 rpm for 10 min. A 100 µL aliquot of the supernatant was transferred to a clean plate for injection.
Pharmacokinetic Analysis: Concentration-time data were analyzed with WinNonlin 8.2 using a non-compartmental approach to derive PK parameters including Cmax, Tmax, AUC and terminal elimination half-life (t1/2). AUC was calculated by the linear-up/log-down trapezoidal method. Table 3. Pk parameters of compounds

[3] = read-out: inhibition of topoisomerase I (Topo I) enzymatic activity, IC50; 0.75 U Topo I, pNO1 plasmid, 37 °C, 30 min; compounds listed by group (Group A / Group B)
[4] = male, CD-1, mouse, po, 20 mg/kg

`CC[C@@]1(O)C(=O)OCc2c1cc1n(c2=O)Cc2c-1c(=O)c1cc(F)ccc1n2CCN1CCCC1` [Example 193] showed an IC50 [1, 3] of 200 to 500 nM.

With `CC[C@@]1(O)C(=O)OCc2c1cc1n(c2=O)Cc2c-1c(=O)c1cc(F)ccc1n2[C@@H]1CCN(CCO)C1` [Example 252, (S)-4-ethyl-8-fluoro-4-hydroxy-11-((R)-1-(2-hydroxyethyl)pyrrolidin-3-yl)-1,12-dihydro-14H-pyrano[3',4':6,7]indolizino[2,1-b]quinoline-3,6,14(4H,11H)-trione] the bioavailability ([2]; male, CD-1, mouse) was 43.1%, the AUC(0-t) ([2]; male, CD-1, mouse, iv, 2 mg/kg) was 674 ng·h/mL and the Cmax ([2]; male, CD-1, mouse, iv, 2 mg/kg) was 558 ng/mL. The clearance ([2]; male, CD-1, mouse, iv, 2 mg/kg) was 49.2 mL/min/kg, the half-life ([2]; male, CD-1, mouse, iv, 2 mg/kg) was 70.2 min and the AUC(0-t) [2, 4] was 2820 ng·h/mL. For the same molecule, the Cmax [2, 4] was 680 ng/mL, the Tmax [2, 4] was 79.8 min and the half-life [2, 4] was 345 min.

With `CC[C@@]1(O)C(=O)OCc2c1cc1n(c2=O)Cc2c-1c(=O)c1cc(F)ccc1n2CCNC1CC1` [Example 96, (S)-11-(2-(cyclopropylamino)ethyl)-4-ethyl-8-fluoro-4-hydroxy-1,12-dihydro-14H-pyrano[3,4:6,7]indolizino[2,1-b]quinoline-3,6,14 (4H,11H)-trione] the IC50 [1, 3] was under 200 nM.

Molecule `CC[C@@]1(O)C(=O)OCc2c1cc1n(c2=O)Cc2c-1nc1cc(F)c(C)c3c1c2[C@@H](NC(=O)CO)CC3` [DXd] has an AUC(0-t) at 24 h ([2]; mouse, in vivo, iv, 1 mg/kg) of 154 ng·h/mL, a Cmax ([2]; mouse, in vivo, iv, 1 mg/kg) of 455 ng/mL and a clearance ([2]; mouse, in vivo, iv, 1 mg/kg) of 108 mL/min/kg. For the same molecule, the half-life ([2]; mouse, in vivo, iv, 1 mg/kg) was 9.3 min, the AUC(0-t) at 24 h ([2]; mouse, in vivo, po, 10 mg/kg) was 4.32 ng·h/mL and the Cmax ([2]; mouse, in vivo, po, 10 mg/kg) was 6.99 ng/mL. For the same molecule, the Tmax ([2]; mouse, in vivo, po, 10 mg/kg) was 19.8 min and the half-life ([2]; mouse, in vivo, po, 10 mg/kg) was 23.4 min.

With `CC[C@@]1(O)C(=O)OCc2c1cc1n(c2=O)Cc2c-1c(=O)c1cc(F)ccc1n2CCN(C)C1CC1` [Example 97, (S)-11-(2-(cyclopropyl(methyl)amino)ethyl)-4-ethyl-8-fluoro-4-hydroxy-1,12-dihydro-14H-pyrano[3,4:6,7]indolizino[2,1-b]quinoline-3,6,14(4H,11H)-trione] the bioavailability ([2]; mouse, in vivo) was 34.5%, the AUC(0-t) at 24 h ([2]; mouse, in vivo, iv, 1 mg/kg) was 114 ng·h/mL and the Cmax ([2]; mouse, in vivo, iv, 1 mg/kg) was 256 ng/mL. It also gave a clearance ([2]; mouse, in vivo, iv, 1 mg/kg) of 146 mL/min/kg, a half-life ([2]; mouse, in vivo, iv, 1 mg/kg) of 28.9 min and an AUC(0-t) at 24 h ([2]; mouse, in vivo, po, 10 mg/kg) of 395 ng·h/mL. The Cmax ([2]; mouse, in vivo, po, 10 mg/kg) was 131 ng/mL, the Tmax ([2]; mouse, in vivo, po, 10 mg/kg) was 55.2 min and the half-life ([2]; mouse, in vivo, po, 10 mg/kg) was 75.6 min.

`CC[C@@]1(O)C(=O)OCc2c1cc1n(c2=O)Cc2c-1c(=O)c1cc(F)c(CO)cc1n2C1CCCC1` [Example 291, (S)-11-cyclopentyl-4-ethyl-8-fluoro-4-hydroxy-9-(hydroxymethyl)-1,12-dihydro-14H-pyrano[3,4:6,7]indolizino[2,1-b]quinoline-3,6,14(4H,11H)-trione] gave an IC50 ([1]; 0.75 U Topo I, pNO1 plasmid, 37 °C, 30 min; compounds listed by group (Group A / Group B); read-out: inhibition of topoisomerase I (Topo I) enzymatic activity, IC50) of 200 to 500 nM.

From EP4778929A1, “NOVEL TYPE I TOPOISOMERASE INHIBITOR, AND PREPARATION METHOD THEREFOR AND USE THEREOF” (priority 2023, dated 2025)
